Where two headings read alike, the source gives them in different places.
Legend:
[1] = system: Akt phosphorylated at Ser473 in PC-3 cells; assay: Cellular assay: phosphorylation of Akt (Ser473) in PC-3 cells, MSD ELISA; assay type: cell-based; settings: 60 min incubation with compound, read-out: IC50 pAkt_S473
Description: (§1) Cellular activity of PI3Kβ inhibitors was determined by quantifying the phosphorylation of Akt in PC-3 cells. Akt phosphorylated at Ser473 and Thr308 were measured using an enzyme-linked immunosorbent assay (ELISA; Meso Scale Discovery (MSD), Gaithersburg, Md.) and specific primary antibodies from MSD.
(§2) On day 1, PC3 cells (ATCC # […]) were seeded into PerkinElmer MW96 plates at 25.000 cells per well, in 75 μl complete culture medium (DMEM (Dulbecco's Modified Eagle's Medium) high glucose, AQmedia™, D0819, Sigma-Aldrich) containing 10% heat inactivated FCS (Fetal Bovine Serum) and incubated at 37° C., 5% CO2 during 24 hours. On day 2, compound or DMSO (dimethyl sulfoxide) (0.3%) was added and cells were further incubated for 60 min at 37° C., 5% CO2 in a total volume of 100 μl of medium.
(§3) The phosphoprotein assay was executed according to vendor instructions in the Phospho-Akt (Ser473) Assay Whole Cell Lysate Kit (MSD # K15100D-3) and the Phospho-Akt (Thr308) Assay Whole Cell Lysate Kit (MSD # K151DYD-3) using the lysis, blocking and wash buffer provided.
(§4) Briefly, at the end of the cell treatment period, media were removed by aspiration and adherent cells were lysed in 50 μl ice-cold lysis buffer. MSD plates are supplied pre-coated with capture antibodies for Phospho-Akt (Ser473 and Thr308). After blocking, lysates from tissue culture plates were added and plates were washed. Then, a solution containing the detection antibody (anti-total Akt conjugated with an electrochemiluminescent compound-MSD Sulfo-tag label) was added. The signals were detected using an MSD SECTOR Imager 6000 and are proportional to the phospho-Akt titres.
(§5) Data were processed. The percentage of inhibition was plotted against the log concentration of test compounds, and the sigmoidal log concentration-effect curve of best fit was calculated by nonlinear regression analysis. From these concentration-response curves, the IC50 values were calculated. Five concentrations were used for curve fitting.

[2] = system: Akt phosphorylated at Thr308 in PC-3 cells; assay: Cellular assay: phosphorylation of Akt (Thr308) in PC-3 cells, MSD ELISA; assay type: cell-based; settings: 60 min incubation with compound, read-out: IC50 pAkt_Thr308
Description: as §1, §2, §3, §4, §5

PIK3Cγ_h = PIK3Cγ_h (Homo sapiens (Human), UniProt P48736); assay: KINOMEscan enzyme binding assay, PIK3Cγ; settings: DiscoveRx
Description: (§6) Enzyme Binding Assays (KINOMEscan®) Kinase enzyme binding affinities of compounds disclosed herein were determined using the KINOMEscan technology performed by DiscoveRx Corporation, San Diego, Calif., USA (www.kinomescan.com).

PIK3Cα_h = PIK3Cα_h (Homo sapiens (Human), UniProt P42336); assay: KINOMEscan enzyme binding assay, PIK3Cα; settings: DiscoveRx
Description: as §6

PIK3Cβ_h = PIK3Cβ_h (Homo sapiens (Human), UniProt P42338); assay: KINOMEscan enzyme binding assay, PIK3Cβ; settings: DiscoveRx
Description: as §6, with “(www.kinomescan.com). Table A reports the obtained Kd values (nM), with the Kd being the inhibitor binding constant: […]” for “(www.kinomescan.com).”

PIK3Cδ_h = PIK3Cδ_h (Homo sapiens (Human), UniProt O00329); assay: KINOMEscan enzyme binding assay, PIK3Cδ; settings: DiscoveRx
Description: as §6, with “(www.kinomescan.com). Table A reports the obtained Kd values (nM), with the Kd being the inhibitor binding constant: […]” for “(www.kinomescan.com).”

MTOR_h = MTOR_h (Homo sapiens (Human), UniProt P42345); assay: KINOMEscan enzyme binding assay, MTOR; settings: DiscoveRx
Description: as §6

Chain of PIK3Cα_h (P42336 whole entry): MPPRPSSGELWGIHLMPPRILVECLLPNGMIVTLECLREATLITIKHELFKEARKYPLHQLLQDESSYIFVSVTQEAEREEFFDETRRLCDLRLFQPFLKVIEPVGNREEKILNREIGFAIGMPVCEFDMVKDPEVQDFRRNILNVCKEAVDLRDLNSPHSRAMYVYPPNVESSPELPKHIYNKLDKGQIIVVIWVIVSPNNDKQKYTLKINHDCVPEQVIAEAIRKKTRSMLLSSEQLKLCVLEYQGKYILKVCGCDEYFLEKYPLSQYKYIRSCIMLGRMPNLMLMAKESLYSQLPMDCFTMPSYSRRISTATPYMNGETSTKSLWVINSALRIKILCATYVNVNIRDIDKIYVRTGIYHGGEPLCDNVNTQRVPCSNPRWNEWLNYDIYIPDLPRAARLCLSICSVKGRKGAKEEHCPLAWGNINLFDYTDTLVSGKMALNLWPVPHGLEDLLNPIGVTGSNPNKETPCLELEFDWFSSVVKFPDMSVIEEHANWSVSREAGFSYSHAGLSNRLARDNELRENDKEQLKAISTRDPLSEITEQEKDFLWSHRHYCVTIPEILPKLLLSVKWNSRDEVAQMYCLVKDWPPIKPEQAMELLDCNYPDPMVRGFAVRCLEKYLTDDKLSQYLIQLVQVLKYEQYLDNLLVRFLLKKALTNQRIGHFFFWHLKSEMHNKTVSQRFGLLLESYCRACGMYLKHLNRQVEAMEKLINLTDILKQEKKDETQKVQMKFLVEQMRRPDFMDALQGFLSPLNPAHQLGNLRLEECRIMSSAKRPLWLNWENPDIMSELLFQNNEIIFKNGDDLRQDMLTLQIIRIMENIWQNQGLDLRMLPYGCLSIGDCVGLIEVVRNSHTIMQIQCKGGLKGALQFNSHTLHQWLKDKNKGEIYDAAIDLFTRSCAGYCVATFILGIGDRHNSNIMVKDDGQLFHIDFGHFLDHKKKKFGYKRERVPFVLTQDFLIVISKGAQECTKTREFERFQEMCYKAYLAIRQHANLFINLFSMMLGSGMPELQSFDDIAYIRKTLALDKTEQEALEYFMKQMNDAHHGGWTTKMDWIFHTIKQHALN
Chain of PIK3Cδ_h (O00329 whole entry): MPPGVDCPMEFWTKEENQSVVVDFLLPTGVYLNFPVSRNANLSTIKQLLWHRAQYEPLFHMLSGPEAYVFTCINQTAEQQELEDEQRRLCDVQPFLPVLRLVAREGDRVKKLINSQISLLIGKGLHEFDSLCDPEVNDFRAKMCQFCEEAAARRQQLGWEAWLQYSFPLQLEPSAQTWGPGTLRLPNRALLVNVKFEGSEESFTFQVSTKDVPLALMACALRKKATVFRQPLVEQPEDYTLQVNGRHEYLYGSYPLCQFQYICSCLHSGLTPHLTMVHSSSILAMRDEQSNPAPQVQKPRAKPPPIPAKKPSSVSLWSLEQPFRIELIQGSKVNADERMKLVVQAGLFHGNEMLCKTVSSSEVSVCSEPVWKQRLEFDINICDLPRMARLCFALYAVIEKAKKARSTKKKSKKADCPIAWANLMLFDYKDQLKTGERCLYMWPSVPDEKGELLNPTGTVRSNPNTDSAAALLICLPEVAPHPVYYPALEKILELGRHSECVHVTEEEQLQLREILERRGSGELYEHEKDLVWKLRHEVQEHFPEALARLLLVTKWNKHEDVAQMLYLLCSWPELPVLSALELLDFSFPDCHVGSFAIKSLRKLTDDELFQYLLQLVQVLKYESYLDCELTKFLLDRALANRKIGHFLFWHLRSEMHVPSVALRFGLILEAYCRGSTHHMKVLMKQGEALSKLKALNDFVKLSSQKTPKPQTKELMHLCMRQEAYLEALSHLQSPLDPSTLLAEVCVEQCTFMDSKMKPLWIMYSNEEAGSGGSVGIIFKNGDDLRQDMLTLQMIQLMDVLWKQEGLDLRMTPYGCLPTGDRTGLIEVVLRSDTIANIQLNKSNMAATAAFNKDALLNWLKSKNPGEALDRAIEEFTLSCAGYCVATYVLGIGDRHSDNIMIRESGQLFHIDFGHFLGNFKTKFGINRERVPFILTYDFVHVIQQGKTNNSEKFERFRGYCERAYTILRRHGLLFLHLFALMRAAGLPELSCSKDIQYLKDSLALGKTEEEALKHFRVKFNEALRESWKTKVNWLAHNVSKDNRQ
Chain of PIK3Cγ_h (P48736 whole entry): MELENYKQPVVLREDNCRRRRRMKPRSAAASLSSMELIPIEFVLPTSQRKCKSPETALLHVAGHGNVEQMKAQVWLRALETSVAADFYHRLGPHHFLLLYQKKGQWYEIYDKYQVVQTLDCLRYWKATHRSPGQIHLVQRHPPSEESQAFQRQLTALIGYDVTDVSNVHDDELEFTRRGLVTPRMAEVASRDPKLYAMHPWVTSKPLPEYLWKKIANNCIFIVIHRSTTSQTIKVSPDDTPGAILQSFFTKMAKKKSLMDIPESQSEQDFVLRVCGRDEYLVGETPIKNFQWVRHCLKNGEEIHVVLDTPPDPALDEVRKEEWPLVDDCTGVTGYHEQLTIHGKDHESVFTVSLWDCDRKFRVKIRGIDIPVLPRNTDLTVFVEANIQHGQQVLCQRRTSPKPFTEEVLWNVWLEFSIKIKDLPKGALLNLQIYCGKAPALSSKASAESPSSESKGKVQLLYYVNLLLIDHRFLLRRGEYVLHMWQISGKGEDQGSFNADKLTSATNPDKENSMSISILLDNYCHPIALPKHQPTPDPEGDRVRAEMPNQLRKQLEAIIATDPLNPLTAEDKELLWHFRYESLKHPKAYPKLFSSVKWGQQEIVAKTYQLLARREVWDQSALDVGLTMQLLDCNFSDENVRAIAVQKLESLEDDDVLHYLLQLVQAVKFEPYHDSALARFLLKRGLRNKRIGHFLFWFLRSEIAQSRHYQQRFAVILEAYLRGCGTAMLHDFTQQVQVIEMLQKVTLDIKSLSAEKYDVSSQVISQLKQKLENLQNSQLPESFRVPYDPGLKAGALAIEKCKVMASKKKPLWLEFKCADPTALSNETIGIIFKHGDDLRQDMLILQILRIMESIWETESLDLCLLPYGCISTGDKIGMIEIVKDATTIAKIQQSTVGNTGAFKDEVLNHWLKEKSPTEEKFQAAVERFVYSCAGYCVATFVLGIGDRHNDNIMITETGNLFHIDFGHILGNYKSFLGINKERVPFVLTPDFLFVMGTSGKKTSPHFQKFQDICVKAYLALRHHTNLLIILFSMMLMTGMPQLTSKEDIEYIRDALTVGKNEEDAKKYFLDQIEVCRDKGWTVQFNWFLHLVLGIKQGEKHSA
Chain of PIK3Cβ_h (P42338 whole entry): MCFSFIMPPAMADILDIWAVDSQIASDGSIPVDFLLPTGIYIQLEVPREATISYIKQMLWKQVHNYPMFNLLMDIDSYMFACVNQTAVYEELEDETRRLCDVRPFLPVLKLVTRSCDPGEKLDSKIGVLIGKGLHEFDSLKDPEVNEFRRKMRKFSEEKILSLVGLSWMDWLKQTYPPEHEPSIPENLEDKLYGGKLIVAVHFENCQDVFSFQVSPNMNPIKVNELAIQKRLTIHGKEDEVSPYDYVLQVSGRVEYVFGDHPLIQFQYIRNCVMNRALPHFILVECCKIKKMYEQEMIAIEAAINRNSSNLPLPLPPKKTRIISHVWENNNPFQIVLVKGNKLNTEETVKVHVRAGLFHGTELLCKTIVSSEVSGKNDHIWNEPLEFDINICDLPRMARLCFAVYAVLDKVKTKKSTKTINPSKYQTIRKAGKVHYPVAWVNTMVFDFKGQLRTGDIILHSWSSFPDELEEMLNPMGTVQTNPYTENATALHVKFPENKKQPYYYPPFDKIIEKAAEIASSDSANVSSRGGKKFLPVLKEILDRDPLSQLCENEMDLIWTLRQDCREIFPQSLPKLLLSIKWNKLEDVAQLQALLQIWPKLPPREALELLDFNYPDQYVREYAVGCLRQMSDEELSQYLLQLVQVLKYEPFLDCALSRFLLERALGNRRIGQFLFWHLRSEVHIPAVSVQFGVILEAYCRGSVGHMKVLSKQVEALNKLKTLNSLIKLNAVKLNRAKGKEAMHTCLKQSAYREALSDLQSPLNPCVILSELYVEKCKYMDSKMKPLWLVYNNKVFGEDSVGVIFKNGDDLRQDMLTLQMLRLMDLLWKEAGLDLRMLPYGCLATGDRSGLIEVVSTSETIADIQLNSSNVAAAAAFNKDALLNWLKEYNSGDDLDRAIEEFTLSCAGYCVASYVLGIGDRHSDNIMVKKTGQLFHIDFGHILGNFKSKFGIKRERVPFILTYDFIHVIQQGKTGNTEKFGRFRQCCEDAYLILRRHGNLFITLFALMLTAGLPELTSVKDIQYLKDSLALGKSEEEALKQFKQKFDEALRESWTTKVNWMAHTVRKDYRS

SMILES | IC50 ([1]; Homo sapiens, PC-3, 1 h) [nM] | IC50 ([2]; Homo sapiens, PC-3, 1 h) [nM] | Kd (PIK3Cγ_h) [nM] | Kd (PIK3Cα_h) [nM] | Kd (PIK3Cβ_h) [nM] | Kd (PIK3Cδ_h) [nM] | Kd (MTOR_h) [nM] | IC50 [1] [nM] | IC50 [2] [nM]
Cc1nc2c(-c3c[nH]cn3)cc(N3CCOCC3)nn2c1Nc1cccc(F)c1C [Compound 50] | 60 | 38 | 1260 | 537 | 1.3 | 33 | 776 |  | 
Cc1nc2c(N)cc(N3CCOCC3)nn2c1Nc1cccc(C(F)(F)F)c1CN1CC(O)C1 [Compound 52] | 44 | 33 | 4790 | 5750 | 1.9 | 40 | 10700 |  | 
Cc1nc2c(N)cc(N3CCOCC3)nn2c1Nc1cccc(C(F)(F)F)c1CN1CC2(CCS2(=O)=O)C1 [Compound 53] | ~176 | ~87 | 19600 | 10000 | 5 | 73 | > 30200 |  | 
Cc1nc2c(N)cc(N3CCOCC3)nn2c1Nc1cccc(C(F)(F)F)c1CN1CCC(S(C)(=O)=O)CC1 [Compound 54] | 200 | 98 | > 30200 | 16200 | 12 | 490 | > 30200 |  | 
Cc1nc2c(N)cc(N3CCOCC3)nn2c1Nc1cccc(C(F)(F)F)c1CNC(C)CO (stereo not shown) [Compound 55] | 10 | 7 | 12600 | 1120 | 0.9 | 9 | > 30200 |  | 
Cc1nc2c(N)cc(N3CCOCC3)nn2c1Nc1cccc(C(F)(F)F)c1CNC(C)CO (stereo not shown) [Compound 56] |  |  | 8680 | 1710 | 1.2 | 16 | > 30200 | ~7 | ~5
Cc1nc2c(-c3c[nH]cn3)cc(N3CCOCC3)nn2c1Nc1cccc(C(F)(F)F)c1CN1CCN(C)CC1 [Compound 57] | 34 | 26 | 891 | 339 | 0.7 | 9 | 6310 |  | 
Cc1nc2c(N)cc(N3CCOCC3)nn2c1Nc1cccc(C(F)(F)F)c1CN1CCN(C)CC1 [Compound 58] | 21 | 17 | 12300 | 4270 | 0.4 | 20 | 21400 |  | 
Cc1nc2c(N)cc(N3CCOCC3)nn2c1Nc1cccc(C(F)(F)F)c1C1CCNCC1 [Compound 59] | 85 | ~60 | 3390 | 6460 | 0.1 | 11 | > 30200 |  | 
Cc1cccc(Nc2c(C)nc3c(N)cc(N4CCOCC4)nn23)c1C1CCNCC1 [Compound 60] | 219 | ~148 | 9770 | 7240 | 0.2 | 16 | > 30200 |  | 
CC(=O)OCc1nc2c(N)cc(N3CCOCC3)nn2c1Cc1cccc(C(F)(F)F)c1C [Compound 61] | 105 | 151 | > 30200 | > 30200 | 12 | 1660 | > 30200 |  | 
Cc1nc2c(N)cc(N3CCOCC3)nn2c1Nc1cccc(C(F)(F)F)c1CN1CCCC1 [Compound 62] | 110 | ~74 | 30200 | 22400 | 10 | 35 | > 30200 |  | 
Cc1nc2c(N)cc(N3CCOCC3)nn2c1Nc1cccc(F)c1CN1CCOCC1 [Compound 63] | 138 | 96 | 20000 | 4170 | 2.2 | 42 | 3160 |  | 
Cc1nc2c(N)cc(N3CCOCC3)nn2c1Nc1cccc2c1CCNC2 [Compound 64] | 166 | 112 | > 30200 | 20900 | 8 | 34 | 17000 |  | 
Cc1c(Cl)cccc1Cc1c(CO)nc2c(-c3c[nH]cn3)cc(N3CCOCC3)nn12 [Compound 67] | 23 | 74 | 324 | 195 | 0.5 | 17 | 186 |  | 
Cc1nc2c(N)cc(N3CCOCC3)nn2c1Nc1ccccc1CN1CCOCC1 [Compound 69] | 186 | 151 | 24500 | 5370 | 15 | 56 | 1510 |  | 
Cc1nc2c(N)cc(N3CCOCC3)nn2c1Nc1cccc(F)c1CNC(C)CO (stereo not shown) [Compound 71] | 246 | 107 | > 30200 | 17000 | 6 | 75 | > 30200 |  | 
Cc1nc2c(N)cc(N3CCOCC3)nn2c1Nc1cccc(C(F)(F)F)c1C1CCN(CCO)CC1 [Compound 73] | 89 | ~72 | 24000 | 3240 | 0.3 | 28 | > 30200 |  | 
Cc1c(Cc2c(COC(=O)C(C)N)nc3c(N)cc(N4CCOCC4)nn23)cccc1C(F)(F)F (stereo not shown) [Compound 79] |  |  | 17400 | 8710 | 0.8 | 120 | 8910 | 27 | 45
Cc1c(Cc2c(COC(=O)C(N)Cc3ccccc3)nc3c(N)cc(N4CCOCC4)nn23)cccc1C(F)(F)F (stereo not shown) [Compound 80] | 209 | ~195 | > 30200 | > 30200 | 44 | 6030 | > 30200 |  | 
CCC(C)C(N)C(=O)OCc1nc2c(N)cc(N3CCOCC3)nn2c1Cc1cccc(C(F)(F)F)c1C (stereo not shown) [Compound 81] | > 513 | 282 | > 30200 | 26900 | 5 | 724 | > 30200 |  | 
Cc1c(Cc2c(COC(=O)C(N)C(C)C)nc3c(N)cc(N4CCOCC4)nn23)cccc1C(F)(F)F (stereo not shown) [Compound 82] | 380 | ~123 | > 30200 | 32400 | 1.3 | 263 | 25100 |  | 
Cc1c(Cc2c(COC(=O)C(C)N)nc3c(N)cc(N4CCOCC4)nn23)cccc1C(F)(F)F (stereo not shown) [Compound 84] |  |  | 12600 | 12000 | 0.5 | 48 | 7940 | 141 | 98
Cc1c(Cc2c(CN)nc3c(N)cc(N4CCOCC4)nn23)cccc1C(F)(F)F [Compound 85] | 115 | 86 | 7480 | > 23000 | 0.7 | 75 | 2680 |  | 
Cc1nc2c(C(=O)O)cc(N3CCOCC3)nn2c1Nc1ccccc1N1CCOCC1 [Compound 86] | > 513 | > 513 | 13200 | 1780 | 10 | 117 | 19500 |  | 
Cc1nc2c(C(N)=O)cc(N3CCOCC3)nn2c1Nc1ccccc1N1CCOCC1 [Compound 87] | 257 | ~224 | 3630 | 1200 | 43 | 219 | 5890 |  | 
Cc1nc2c(-c3ccn[nH]3)cc(N3CCOCC3)nn2c1Nc1ccccc1N1CCOCC1 [Compound 89] | 115 | 83 | 851 | 631 | 22 | 44 | 85 |  | 
Cc1c(Cc2c(C(O)CN)nc3c(N)cc(N4CCOCC4)nn23)cccc1C(F)(F)F (stereo not shown) [Compound 91] | > 513 | > 513 | 8130 | 8910 | 1.1 | 148 | 776 |  | 

Reference: US10087187B2, “Imidazopyridazine derivatives as PI3KB inhibitors” (Janssen Pharmaceutica NV, priority 2014, dated 2018)
